Assay results from US10407381B2 (THE BOARD OF TRUSTEES OF THE UNIVERSITY OF ILLINOIS, priority 2015, dated 2019).
Where two headings read alike, the source gives them in different places.

Tests used:
[1] = target: T1, human 5-HT2C-INI (Homo sapiens, UniProt P28335); experiment: Calcium flux (FLIPR) assay, human 5-HT2C-INI stably expressed in HEK-293 (Flp-In-293) cells; conditions: for Emax, % 5-HT 5-HT2C: normalized to 5-HT
T1 sequence (P28335 33-458): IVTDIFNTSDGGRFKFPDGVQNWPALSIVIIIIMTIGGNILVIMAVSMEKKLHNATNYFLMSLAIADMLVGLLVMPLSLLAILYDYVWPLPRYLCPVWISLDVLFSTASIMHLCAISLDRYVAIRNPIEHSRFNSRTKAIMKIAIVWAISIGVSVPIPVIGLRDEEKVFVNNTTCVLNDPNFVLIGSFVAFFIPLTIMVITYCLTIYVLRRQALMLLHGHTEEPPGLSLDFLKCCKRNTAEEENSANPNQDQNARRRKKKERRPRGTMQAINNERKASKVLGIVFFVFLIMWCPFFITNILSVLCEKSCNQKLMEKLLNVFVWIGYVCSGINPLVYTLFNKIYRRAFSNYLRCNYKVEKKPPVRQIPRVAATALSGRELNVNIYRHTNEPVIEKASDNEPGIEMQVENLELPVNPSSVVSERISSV

[2] = target: 5-HT2B (Homo sapiens, UniProt P41595); experiment: Calcium flux (FLIPR) assay, human 5-HT2B stably expressed in HEK-293 (Flp-In-293) cells; conditions: human 5-HT2B in HEK-293 cells; for EC50: EC50, nM 5-HT2B, NA = no activity at 10 μM; for Emax, % 5-HT 5-HT2B: normalized to 5-HT
Sequence of 5-HT2B (P41595 whole entry): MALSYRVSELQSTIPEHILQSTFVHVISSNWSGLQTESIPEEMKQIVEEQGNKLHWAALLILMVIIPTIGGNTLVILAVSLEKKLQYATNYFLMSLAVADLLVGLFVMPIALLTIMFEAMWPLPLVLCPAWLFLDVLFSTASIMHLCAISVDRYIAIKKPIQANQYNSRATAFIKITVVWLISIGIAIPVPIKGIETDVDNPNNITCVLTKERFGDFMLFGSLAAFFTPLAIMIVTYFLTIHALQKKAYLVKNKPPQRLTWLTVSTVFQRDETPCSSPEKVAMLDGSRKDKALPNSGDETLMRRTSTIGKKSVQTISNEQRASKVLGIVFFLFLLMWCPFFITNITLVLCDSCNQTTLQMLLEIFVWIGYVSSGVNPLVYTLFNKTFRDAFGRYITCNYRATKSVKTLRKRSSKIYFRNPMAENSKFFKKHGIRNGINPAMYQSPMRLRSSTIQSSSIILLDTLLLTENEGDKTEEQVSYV

[3] = EC50, nM 5-HT2C, human 5-HT2C-INI in HEK-293 cells, FLIPR, NA = no activity at 10 μM
[4] = human 5-HT2C-INI in HEK-293 cells, FLIPR
[5] = read-out: EC50, nM 5-HT2C, human 5-HT2C-INI in HEK-293 cells, FLIPR, NA = no activity at 10 μM

Compound | EC50 [1, 3] [nM] | Emax, % 5-HT 5-HT2C [1, 4] | EC50 [2] [nM] | Emax, % 5-HT 5-HT2B [2] | EC50 ([1]; EC50, nM 5-HT2C) [nM] | EC50 [1, 5] [nM]
NCC1CC1c1c(OCCF)ccc(F)c1Cl (single isomer, unassigned; (+)) [(+)-Example 52, (+)-(2-(2-Chloro-3-fluoro-6-(2-fluoroethoxy)phenyl)cyclopropyl)methanamine] | 49 | (86%) % 5-HT |  |  |  | 
CCCOc1cc(F)c(F)cc1C1CC1CN (single isomer, unassigned; (-)) [(−)-Example 43, (−)-(2-(4,5-Difluoro-2-propoxyphenyl)cyclopropyl)methanamine] |  | (89%) % 5-HT | 2970 | (13%) % 5-HT | 119 | 
CSCCOc1ccc(Cl)cc1C1CC1CN (single isomer, unassigned; (+)) [(+)-Example 18, (+)-(2-(5-Chloro-2-(2-(methylthio)ethoxy)phenyl)cyclopropyl)methanamine] | 244 | (24%) % 5-HT |  |  |  | 
C=CCOc1cc(Cl)c(Cl)cc1C1CC1CN (single isomer, unassigned; (+)) [(+)-Example 35, (+)-(2-(2-(Allyloxy)-4,5-dichlorophenyl)cyclopropyl)methanamine] | 61 | (88%) % 5-HT |  |  |  | 
C=C(F)COc1ccc(Cl)cc1C1CC1CN (single isomer, unassigned; (-)) [(−)-Example 25, (−)-(2-(5-Chloro-2-((2-fluoroallyl)oxy)phenyl)cyclopropyl)methanamine] |  |  | 6880 | (33%) % 5-HT |  | 
COCCOc1ccc(Cl)cc1C1CC1CN (single isomer, unassigned; (+)) [(+)-Example 17, (+)-(2-(5-Chloro-2-(2-methoxyethoxy)phenyl)cyclopropyl)methanamine] | 183 | (8%) % 5-HT |  |  |  | 
CCCOc1ccc(Cl)cc1C1CC1CN (single isomer, unassigned; (-)) [(−)-Example 12, (−)-(2-(5-Chloro-2-propoxyphenyl)cyclopropyl)methanamine] | 1230 | (31%) % 5-HT | 3000 | (21%) % 5-HT |  | 
CCCOc1ccc(Cl)cc1C1CC1CN (single isomer, unassigned; (+)) [(+)-Example 12, (+)-(2-(5-Chloro-2-propoxyphenyl)cyclopropyl)methanamine] | 103 | (72%) % 5-HT | 3440 | (25%) % 5-HT |  | 
C=C(F)COc1ccc(F)cc1C1CC1CN (single isomer, unassigned; (-)) [(−)-Example 9, (−)-(2-(5-Fluoro-2-((2-fluoroallyl)oxy)phenyl)cyclopropyl)methanamine] | 985 | (62%) % 5-HT |  |  |  | 
C=CCOc1ccc(F)c(F)c1C1CC1CN (single isomer, unassigned; (-)) [(−)-Example 49, (−)-(2-(6-(Allyloxy)-2,3-difluorophenyl)cyclopropyl)methanamine] | 151 | (89%) % 5-HT | 4460 | (26%) % 5-HT |  | 
C=CCOc1cc(F)c(Cl)cc1C1CC1CN (single isomer, unassigned; (-)) [(−)-Example 5, (−)-(2-(2-(Allyloxy)-5-chloro-4-fluorophenyl)cyclopropyl)methanamine] | 308 | (77%) % 5-HT | 1960 | (22%) % 5-HT |  | 
NCC1CC1c1c(OCCF)ccc(Cl)c1Cl (single isomer, unassigned; (-)) [(−)-Example 38, (−)-(2-(2,3-Dichloro-6-(2-fluoroethoxy)phenyl)cyclopropyl)methanamine] | 224 | (85%) % 5-HT | 10400 | (62%) % 5-HT |  | 
NCC1CC1c1c(OCCF)ccc(F)c1F (single isomer, unassigned; (+)) [(+)-Example 47, (+)-(2-(2,3-Difluoro-6-(2-fluoroethoxy)phenyl)cyclopropyl)methanamine] | 25 | (95%) % 5-HT |  |  |  | 
NCC1CC1c1cc(F)c(F)cc1OCCF (single isomer, unassigned; (-)) [(−)-Example 42, (−)-(2-(4,5-Difluoro-2-(2-fluoroethoxy)phenyl)cyclopropyl)methanamine] | 772 | (73%) % 5-HT |  |  |  | 
NCC1CC1c1cc(F)c(F)cc1OCCF (single isomer, unassigned; (+)) [(+)-Example 42, (+)-(2-(4,5-Difluoro-2-(2-fluoroethoxy)phenyl)cyclopropyl)methanamine] | 7.3 | (95%) % 5-HT |  |  |  | 
C=CCOc1ccc(Cl)c(Cl)c1C1CC1CN (single isomer, unassigned; (+)) [(+)-Example 39] |  | (70%) % 5-HT |  |  |  | 165
NCC1CC1c1cc(Cl)ccc1OCCCF (single isomer, unassigned; (+)) [(+)-Example 20, (+)-(2-(5-Chloro-2-(3-fluoropropoxy)phenyl)cyclopropyl)methanamine] | 206 | (60%) % 5-HT | 4910 | (22%) % 5-HT |  | 
NCC1CC1c1cc(Cl)c(F)cc1OCCF (single isomer, unassigned; (-)) [(−)-Example 4, (−)-(2-(5-Chloro-4-fluoro-2-(2-fluoroethoxy)phenyl)cyclopropyl)methanamine] | 776 | (70%) % 5-HT | 2520 | (26%) % 5-HT |  | 
C=C(C)COc1ccc(Cl)cc1C1CC1CN (single isomer, unassigned; (-)) [(−)-Example 24, (−)-(2-(5-Chloro-2-((2-methylallyl)oxy)phenyl)cyclopropyl)methanamine] |  |  | 6090 | (39%) % 5-HT |  | 
COCCOc1ccc(Cl)cc1C1CC1CN (single isomer, unassigned; (-)) [(−)-Example 17, (−)-(2-(5-Chloro-2-(2-methoxyethoxy)phenyl)cyclopropyl)methanamine] | 667 | (45%) % 5-HT | 5300 | (32%) % 5-HT |  | 
C=CCOc1ccc(F)c(Cl)c1C1CC1CN (single isomer, unassigned; (+)) [(+)-Example 53, (+)-(2-(6-(Allyloxy)-2-chloro-3-fluorophenyl)cyclopropyl)methanamine] | 96 | (92% 5-HT |  |  |  | 
CCOc1ccc(F)c(Cl)c1C1CC1CN (single isomer, unassigned; (-)) [(−)-Example 51, (−)-(2-(2-Chloro-6-ethoxy-3-fluorophenyl)cyclopropyl)methanamine] | 38 | (89%) % 5-HT | 1640 | (33%) % 5-HT |  | 
NCC1CC1c1c(OCCF)ccc(F)c1F (single isomer, unassigned; (-)) [(−)-Example 47, (−)-(2-(2,3-Difluoro-6-(2-fluoroethoxy)phenyl)cyclopropyl)methanamine] | 509 | (78%) % 5-HT |  | (29%) % 5-HT |  | 
C=CCOc1ccc(F)c(F)c1C1CC1CN (single isomer, unassigned; (+)) [(+)-Example 49, (+)-(2-(6-(Allyloxy)-2,3-difluorophenyl)cyclopropyl)methanamine] | 36 | (100%) % 5-HT | 3340 | (35%) % 5-HT |  | 
CCOc1ccc(Cl)cc1C1CC1CN (single isomer, unassigned; (-)) [(−)-Example 11, (−)-(2-(5-Chloro-2-ethoxyphenyl)cyclopropyl)methanamine] | 646 | (72%) % 5-HT | 2310 | (26%) % 5-HT |  | 
NCC1CC1c1c(OCCF)ccc(F)c1Cl (single isomer, unassigned; (-)) [(−)-Example 52, (−)-(2-(2-Chloro-3-fluoro-6-(2-fluoroethoxy)phenyl)cyclopropyl)methanamine] |  | (80%) % 5-HT |  | (29%) % 5-HT |  | 135
CSCCOc1ccc(Cl)cc1C1CC1CN (single isomer, unassigned; (-)) [(−)-Example 18, (−)-(2-(5-Chloro-2-(2-(methylthio)ethoxy)phenyl)cyclopropyl)methanamine] | 1760 | (11%) % 5-HT |  |  |  | 
CCCOc1ccc(F)c(F)c1C1CC1CN (single isomer, unassigned; (-)) [(−)-Example 48, (−)-(2-(2,3-Difluoro-6-propoxyphenyl)cyclopropyl)methanamine] | 357 | (68%) % 5-HT |  |  |  | 
